Laboratory results: patent publication US8722910B2, “Diyne compositions” (Evolva AG, priority 2009, dated 2014)
Converted amounts (≈) assume the structure as drawn.

How the values were obtained:
[1] = system: M. cookie; assay: In vitro antifungal activity vs. dermatophytes (MIC/MFC); format: cell-based; conditions: M. cookie (n = 1)
[2] = system: M. gypseum; assay: as above; format: cell-based; conditions: M. gypseum (n = 1)
[3] = system: Candida albicans; assay: In vitro antifungal activity vs. yeasts (MIC/MFC); format: cell-based; conditions: Candida albicans (n = 8)
[4] = system: C. parapsilosis; assay: In vitro antifungal activity vs. yeasts (MIC/MFC); format: cell-based; conditions: Lodderomyces parapsilosis, C. parapsilosis (n = 2)
[5] = system: C. krusei; assay: In vitro antifungal activity vs. yeasts (MIC/MFC); format: cell-based; conditions: Pichia kudriavzevii, C. krusei (n = 1)
[6] = system: yeasts; assay: MFC range over yeasts tested; format: cell-based, Candida and Malassezia strains; conditions: Table 13 strains
Description: The fungal isolates tested in this study to evaluate the antifungal activity of (Z)-14-([…]-11,13-diynoic acid, 14-([…]-11,13-diynoic acid, (Z)-14-([…]-11,13-diynoic acid, potassium salt and comparators are clinical isolates collected from patients and deposited at the culture collection of the Center for Medical Mycology. Tested isolates included: Candida albicans, C. glabrata, C. guilliermondii, C. krusei, C. lipolytica, C. lusitaniae, C. parapsilosis, C. tropicalis and Malassezia furfur. Dermatophyte strains included Trichophyton rubrum, T. mentagrophytes, T. tonsurans, T. terrestre, Epidermophyton floccosum, Microsporum canis, M. cookie, M. gallinae, M. gypseum, and M. vanbreuseghemii. […] The plates were then streaked with an inoculating loop to remove the cells from the drug source.

[7] = system: (1,3)β-Glucan Synthase; assay: Inhibition of fungal cell wall synthesis enzymes; format: biochemical
Description: (§1) Specific inhibitors of each enzyme served as positive controls (Cilofungin, a β-glucan synthase inhibitor and nikkomycin Z, a chitin synthase inhibitor).

[8] = system: Chitin Synthase; assay: Inhibition of fungal cell wall synthesis enzymes; format: biochemical
Description: as §1

[9] = system: C. albicans; assay: Effect on the morphology of growing Candida albicans cultures; format: cell-based; conditions: inhibiting concentrations
[10] = system: Trichophyton mentagrophytes; assay: Guinea pig skin infection, topical dosing; format: in vivo; conditions: guinea pigs
Description: The efficacy of compound III″ in skin infections of small mammals was shown in guinea pigs infected with Trichophyton mentagrophytes on abrased skin. Compound III″ was administered topically at 0.1% or 1% once daily for seven days. Fungal burden decreased by 82% and 98% respectively, compared to the untreated control (see FIG. 13 showing topical fungal burden as determined by culture positive hair removed from the site of infection).

[11] = system: C. albicans; assay: Susceptibility of clinical isolates (MIC, broth dilution); format: cell-based
Description: (§2) The efficacy of compound IV″ was investigated on 563 clinical isolates of 33 human fungal pathogens. […] For species with n≧10, the MIC90 (MIC, minimal inhibitory concentration) is given as ng/ml. For species with n≦10, the MIC range is given as ng/ml. 24 h and 48 h reads are indicated (Table 1).
(§3) The in vitro efficacy of antifungal compounds is determined in susceptibility assays, which are indicative for the spectrum and potency of a compound. Susceptibilities are reported as minimal inhibitory concentrations (MIC, as ng/ml or μg/ml) required to inhibit growth to a defined degree compared to the drug free control. The MIC90 defines the MIC required to inhibit growth for ≧90% of the strains of a population tested.
(§4) The MIC90 was calculated for the indicated species.

[12] = system: C. dubliniensis; assay: as above; format: cell-based
Description: as §2, §3, §4

[13] = system: C. glabrata; assay: as above; format: cell-based
Description: as §2, §3, §4

[14] = system: C. krusei; assay: as above; format: cell-based
Description: as §2, §3, §4

[15] = system: C. lusitaniae; assay: as above; format: cell-based
Description: as §2, §3, §4

[16] = system: C. parapsilosis; assay: as above; format: cell-based
Description: as §2, §3, §4

[17] = system: C. tropicalis; assay: as above; format: cell-based
Description: as §2, §3, §4

[18] = system: A. fumigatus; assay: Susceptibility of clinical Aspergillus isolates (MIC); format: cell-based
Description: as §2
(§5) Susceptibilities were determined according to the CLSI reference method M38-A2.

[19] = system: A. versicolor; assay: as above; format: cell-based
Description: as §2, §5

[20] = system: Candida glabrata; assay: Growth inhibition alone and combined with Amphotericin B (visual); format: cell-based
Description: (§6) Potassium (Z)-14-(furan-2-yl)tetradeca-9-en-11,13-diynoate was tested against Aspergillus fumigatus and various Candida species alone to determine antifungal activity and in various combinations with Amphotericin B to determine if any synergistic or antagonistic interactions may occur.
(§7) Amphotericin B and potassium (Z)-14-(furan-2-yl)tetradeca-9-en-11,13-diynoate were added to an in vitro culture of different fungi in various concentrations and the culture was visually inspected. If there is inhibition of growth the culture will remain optically clear, whereas growth results in a hazy culture. The results are shown in FIG. 5, where 0 means optically clear (i.e. no growth), 1 means slightly hazy, 2 means prominent decrease (at least 50%) in visible growth, 3 means slight reduction in visible growth and 4 means no reduction in visible growth.

[21] = system: Candida parapsilosis; assay: as above; format: cell-based; conditions: 2 μg/ml and lower
Description: as §6, §7

O=C(O)CCCCCCC/C=C\C#CC#Cc1ccco1 [Compound III″]
MIC ([1]; 96 h, 35° C., 4 days): 1000 ng/mL (≈ 3.52 µM)
MFC [1]: 2000 ng/mL (≈ 7.03 µM)
MIC90/MIC range 48 h ([1]; 48 h): 1000 ng/mL (≈ 3.52 µM)
MIC90/MIC range 48 h ([2]; 48 h): <0.06 ng/mL
MIC ([2]; Nannizzia gypsea, 96 h, 35° C., 4 days): < 0.06 ng/mL
MFC ([2]; Nannizzia gypsea): 16000 ng/mL (≈ 56.3 µM)
MFC [3]: < 0.06 ng/mL
MIC ([3]; 90% inhibition endpoint): < 0.06 ng/mL
MFC [4]: 32000 ng/mL (≈ 113 µM)
MIC ([4]; 90% inhibition endpoint): 4000 ng/mL (≈ 14.1 µM)
MFC [5]: 1 ng/mL (≈ 0.00352 µM)
MIC ([5]; 90% inhibition endpoint): 0.5 ng/mL (≈ 0.00176 µM)
MFC range against yeasts [6]: <0.06 to 32000 ng/mL
% Inhibition, (1,3)β-Glucan Synthase ([7]; 10 μg/ml): 0%
% Inhibition, (1,3)β-Glucan Synthase ([7]; 100 μg/ml): 73%
% Inhibition, (1,3)β-Glucan Synthase ([7]; 400 μg/ml): 90%
% Inhibition, Chitin Synthase ([8]; 10 μg/ml): 16%
% Inhibition, Chitin Synthase ([8]; 100 μg/ml): 85%
% Inhibition, Chitin Synthase ([8]; 500 μg/ml): 97%
concentrations at which the enzymes were inhibited ([8]; chitin synthase and β-glucan synthase): > 100 µg/mL
effect on hyphal tube formation ([9]; microscopy): prevented hyphal tube formation
effect on cell growth ([9]; microscopy and MTT): fungicidal, totally preventing cell growth
decrease of fungal burden (culture positive hair) ([10]; topically 0.1% once daily for seven days): 82%
decrease of fungal burden (culture positive hair) ([10]; topically 1% once daily for seven days): 98%

O=C([O-])CCCCCCC/C=C\C#CC#Cc1ccco1.[K+] [Compound IV″, potassium (Z)-14-(furan-2-yl)tetradeca-9-en-11,13-diynoate]
MIC90/MIC range 48 h ([11]; C. albicans (n = 20), MIC90, 48 h): 2.5 ng/mL
MIC90 ([11]; Candida albicans, 24 h): 2.5 ng/mL
MIC90/MIC range 48 h ([12]; C. dubliniensis (n = 25), MIC90, 48 h): 2.5 ng/mL
MIC90 ([12]; Candida dubliniensis, 24 h): 2.5 ng/mL
MIC90/MIC range 48 h ([13]; C. glabrata (n = 25), MIC90, 48 h): 20 ng/mL
MIC90 ([13]; Nakaseomyces glabratus, 24 h): 20 ng/mL
MIC90/MIC range 48 h ([14]; C. krusei (n = 27), MIC90, 48 h): 20 ng/mL
MIC90 ([14]; Pichia kudriavzevii, 24 h): 20 ng/mL
MIC90/MIC range 48 h ([15]; C. lusitaniae (n = 24), MIC90, 48 h): 128 ng/mL
MIC90 ([15]; Clavispora lusitaniae, 24 h): 128 ng/mL
MIC90/MIC range 48 h ([16]; C. parapsilosis (n = 37), MIC90, 48 h): 1024 ng/mL
MIC90 ([16]; Lodderomyces parapsilosis, 24 h): 1020 ng/mL
MIC50 ([16]; Lodderomyces parapsilosis, 24 h, read-out: calculated MIC50): 128 ng/mL
MIC90/MIC range 48 h ([17]; C. tropicalis (n = 35), MIC90, 48 h): 5 ng/mL
MIC90 ([17]; Candida tropicalis, 24 h): 5 ng/mL
MIC90/MIC range 24 h ([18]; A. fumigatus (n = 40), MIC90, 24 h): 160 ng/mL
MIC90/MIC range 48 h ([18]; A. fumigatus (n = 40), MIC90, 48 h): 1280 ng/mL
MIC50 ([18]; Aspergillus fumigatus, 24 h): 80 ng/mL
MIC90/MIC range 24 h ([19]; A. versicolor (n = 4), MIC range, 24 h): 80 to 2560 ng/mL
MIC90/MIC range 48 h ([19]; A. versicolor (n = 4), MIC range, 48 h): 160 to 5120 ng/mL
MIC50 ([19]; Aspergillus versicolor, 24 h): 1280 ng/mL
interaction with Amphotericin B [20]: Synergism was observed
inhibition of growth ([20]; 2 μg/ml and lower): clearly inhibits growth
inhibition of growth by the combination ([20]; AmphothericinB/potassium salt 250/2.5 ng/ml or 125/10 ng/ml): clearly inhibit growth
inhibition of growth [21]: clearly inhibits growth
